The source of these data is patent US12692254B2, “Benzimidazole inhibitors of PAD enzymes” (BRISTOL-MYERS SQUIBB COMPANY, priority 2018, dated 2026).

In this test the target is human PAD4 (hPAD4) (Homo sapiens, UniProt Q9UM07). Kind of test: RFMS human PAD4 functional assay (rapid-fire mass spectrum). The class given is biochemical. The following applies: 5 nM hPAD4 enzyme, 250 μM BAEE, 50 μM Calcium; 30 min preincubation, 90 min reaction at 37° C. Summed up: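 PAD4 (10 nM) preincubated 30 min with compound (top final 50 μM), then BAEE substrate added in pH 7.5 HEPES buffer with DTT, 50 μM calcium, TPEN; 90 min at 37° C. After TCA quench, citrulline derivatized with phenyl glyoxal (4 mM final, 30 min, 37° C) and quantified by RapidFire MS against internal standard.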

In general, IC50 refers to the concentration at which inhibition is half-maximal.

Chain of human PAD4 (hPAD4) (Q9UM07 whole entry): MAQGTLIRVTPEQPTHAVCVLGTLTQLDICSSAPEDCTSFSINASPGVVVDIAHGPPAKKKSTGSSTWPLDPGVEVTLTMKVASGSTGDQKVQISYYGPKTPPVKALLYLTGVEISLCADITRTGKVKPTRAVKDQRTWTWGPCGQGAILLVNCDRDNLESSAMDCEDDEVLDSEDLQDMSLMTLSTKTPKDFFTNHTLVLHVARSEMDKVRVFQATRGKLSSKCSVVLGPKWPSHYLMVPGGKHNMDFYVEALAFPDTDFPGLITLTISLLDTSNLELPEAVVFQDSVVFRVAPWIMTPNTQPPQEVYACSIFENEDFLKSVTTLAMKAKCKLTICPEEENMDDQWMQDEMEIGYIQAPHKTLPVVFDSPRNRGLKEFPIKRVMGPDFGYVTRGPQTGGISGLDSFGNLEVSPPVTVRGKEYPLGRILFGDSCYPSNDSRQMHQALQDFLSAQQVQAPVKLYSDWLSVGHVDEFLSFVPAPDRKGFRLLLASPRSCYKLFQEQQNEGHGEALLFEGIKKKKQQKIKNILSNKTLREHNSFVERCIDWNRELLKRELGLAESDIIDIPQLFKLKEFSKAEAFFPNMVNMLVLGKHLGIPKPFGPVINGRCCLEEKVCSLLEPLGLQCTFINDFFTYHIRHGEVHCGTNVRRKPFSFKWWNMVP

As to `COc1cc(C(=O)N2C[C@H]3CC[C@@H]2[C@@H]3N)cc2nc(-c3cc4cccnc4n3CC3CC3)n(CC3CN(c4cncs4)C3)c12` [Example 84, (1R,4R,7R)-2-{2-[1-(cyclopropylmethyl)-1H-pyrrolo[2,3-b]pyridin-2-yl]-7-methoxy-1-{[1-(1,3-thiazol-5-yl)azetidin-3-yl]methyl}-1H-1,3-benzodiazole-5-carbonyl}-2-azabicyclo[2.2.1]heptan-7-amine], the IC50 is 0.511 µM.

As for `COc1cc(C(=O)N2C[C@H]3CC[C@@H]2[C@@H]3N)cc2nc(-c3cc4cccnc4n3CC3CC3)n(CC3CN(S(=O)(=O)C4CC4)C3)c12` [Example 332, (1R,4R,7R)-2-(1-{[1-(cyclopropanesulfonyl)azetidin-3-yl]methyl}-2-[1-(cyclopropylmethyl)-1H-pyrrolo[2,3-b]pyridin-2-yl]-7-methoxy-1H-1,3-benzodiazole-5-carbonyl)-2-azabicyclo[2.2.1]heptan-7-amine], the half-inhibitory concentration (IC50) was 0.219 µM.

Consider `COc1cc(C(=O)N2C[C@H](N)C[C@@H](F)C2)cc2nc(-c3cc4ccccc4n3CC3CC3)n(CCCN3CCCC3=O)c12` [Example 274, 1-(3-{5-[(3R,5R)-3-amino-5-fluoropiperidine-1-carbonyl]-2-[1-(cyclopropylmethyl)-1H-indol-2-yl]-7-methoxy-1H-1,3-benzodiazol-1-yl}propyl)pyrrolidin-2-one], for which the IC50 worked out at 0.261 µM. In the case of `COc1cc(C(=O)N2CC3CCC2[C@@H]3N)cc2nc(-c3cc4ccccc4n3CC3CC3)n(CC3CN(C(=O)c4cnc(Cl)s4)C3)c12` (stereo partly drawn) [Example 414, (7R)-2-(1-{[1-(2-chloro-1,3-thiazole-5-carbonyl)azetidin-3-yl]methyl}-2-[1-(cyclopropylmethyl)-1H-indol-2-yl]-7-methoxy-1H-1,3-benzodiazole-5-carbonyl)-2-azabicyclo[2.2.1]heptan-7-amine], the IC50 turned out to be 0.035 µM.

In the case of `COc1cc(C(=O)N2C[C@H]3CC[C@@H]2[C@@H]3N)cc2nc(-c3cc4ccccc4n3CC3CC3)n(CCCOc3ccc(C#N)cc3)c12` [Example 260, 4-(3-{5-[(1R,4R,7R)-7-amino-2-azabicyclo[2.2.1]heptane-2-carbonyl]-2-[1-(cyclopropylmethyl)-1H-indol-2-yl]-7-methoxy-1H-1,3-benzodiazol-1-yl}propoxy)benzonitrile], the IC50 stood at 0.048 µM.

Take `COc1cccc(-n2cc(Cn3c(-c4cc5ccccc5n4CC4CC4)nc4cc(C(=O)N5CC6CCC5[C@@H]6N)cc(OC)c43)cn2)n1` (stereo partly drawn) [Example 378, (7R)-2-{2-[1-(cyclopropylmethyl)-1H-indol-2-yl]-7-methoxy-1-{[1-(6-methoxypyridin-2-yl)-1H-pyrazol-4-yl]methyl}-1H-1,3-benzodiazole-5-carbonyl}-2-azabicyclo[2.2.1]heptan-7-amine]: the IC50 is 0.037 µM. Next, `COc1cc(C(=O)N2C[C@H]3CC[C@@H]2[C@@H]3N)cc2nc(-c3cc4cccnc4n3CC3CC3)n(CC3CN(C(=O)c4cnc(C#N)nc4)C3)c12` [Example 127, 5-[3-({5-[(1R,4R,7R)-7-amino-2-azabicyclo[2.2.1]heptane-2-carbonyl]-2-[1-(cyclopropylmethyl)-1H-pyrrolo[2,3-b]pyridin-2-yl]-7-methoxy-1H-1,3-benzodiazol-1-yl}methyl)azetidine-1-carbonyl]pyrimidine-2-carbonitrile]: 0.109 µM; `COc1cc(C(=O)N2CC3CCC2[C@@H]3N)cc2nc(-c3cc4ccccc4n3CC3CC3)n(CC3CN(C(=O)c4ccc(C(F)(F)F)cc4)C3)c12` (stereo partly drawn) [Example 420, (7R)-2-{2-[1-(cyclopropylmethyl)-1H-indol-2-yl]-7-methoxy-1-({1-[4-(trifluoromethyl)benzoyl]aze-tidin-3-yl}methyl)-1H-1,3-benzodiazole-5-carbonyl}-2-azabicyclo[2.2.1]heptan-7-amine]: 0.02 µM; `COc1cc(C(=O)N2CC3CCC2[C@@H]3N)cc2nc(-c3cc4ccccc4n3CC3CC3)n(CC3CC3)c12` (stereo partly drawn) [Example 476, (7R)-2-[1-(cyclopropylmethyl)-2-[1-(cyclopropylmethyl)-1H-indol-2-yl]-7-methoxy-1H-1,3-benzodiazole-5-carbonyl]-2-azabicyclo[2.2.1]heptan-7-amine]: 0.1 µM. For the molecule `COc1cc(C(=O)N2C[C@H]3CC[C@@H]2[C@@H]3N)cc2nc(-c3cc4cccnc4n3CC3CC3)n(C3CN(C(=O)c4ccnc(C)n4)C3)c12` [Example 97, (1R,4R,7R)-2-{2-[1-(cyclopropylmethyl)-1H-pyrrolo[2,3-b]pyridin-2-yl]-7-methoxy-1-[1-(2-methylpyrimidine-4-carbonyl)azetidin-3-yl]-1H-1,3-benzodiazole-5-carbonyl}-2-azabicyclo[2.2.1]heptan-7-amine], the IC50 stood at 0.063 µM. As for `COc1cc(C(=O)N2C[C@H]3CC[C@@H]2[C@@H]3N)cc2nc(-c3cc4cccnc4n3CC3CC3)n(C3CN(C(=O)c4ccncn4)C3)c12` [Example 100, (1R,4R,7R)-2-{2-[1-(cyclopropylmethyl)-1H-pyrrolo[2,3-b]pyridin-2-yl]-7-methoxy-1-[1-(pyrimidine-4-carbonyl)azetidin-3-yl]-1H-1,3-benzodiazole-5-carbonyl}-2-azabicyclo[2.2.1]heptan-7-amine], the half-maximal inhibitory concentration (IC50) worked out at 0.117 µM.

For `COc1cc(C(=O)N2CC3CCC2[C@@H]3N)cc2nc(-c3cc4cccnc4n3CC3CC3)n(Cc3cnn(-c4ccccn4)c3)c12` (stereo partly drawn) [Example 400, (7R)-2-{2-[1-(cyclopropylmethyl)-1H-pyrrolo[2,3-b]pyridin-2-yl]-7-methoxy-1-{[1-(pyridin-2-yl)-1H-pyrazol-4-yl]methyl}-1H-1,3-benzodiazole-5-carbonyl)-2-azabicyclo[2.2.1]heptan-7-amine], the half-inhibitory concentration (IC50) was 0.057 µM.

As to `COc1cc(C(=O)N2CC3CCC2[C@@H]3N)cc2nc(-c3cc4cccnc4n3CC3CC3)n(C3CN(S(=O)(=O)c4ccc(Cl)nc4)C3)c12` (stereo partly shown) [Example 337], the IC50 turned out to be 0.479 µM. For `COc1cc(C(=O)N2C[C@H](N)C[C@@H](F)C2)cc2nc(-c3cc4ccccc4n3CC3CC3)n(CCCOc3ccc(C#N)cc3)c12` [Example 271, 4-(3-{5-[(3R,5R)-3-amino-5-fluoropiperidine-1-carbonyl]-2-[1-(cyclopropylmethyl)-1H-indol-2-yl]-7-methoxy-1H-1,3-benzodiazol-1-yl}propoxy)benzonitrile] the value was 0.145 µM; for `COc1cc(C(=O)N2CC3CCC2[C@@H]3N)cc2nc(-c3cc4ccccc4n3CC3CC3)n(Cc3cnn(-c4ccc(C(F)F)nc4)c3)c12` (stereo partly drawn) [Example 387, (7R)-2-{2-[1-(cyclopropylmethyl)-1H-indol-2-yl]-1-({1-[6-(difluoromethyl)pyridin-3-yl]-1H-pyrazol-4-yl}methyl)-7-methoxy-1H-1,3-benzodiazole-5-carbonyl}-2-azabicyclo[2.2.1]heptan-7-amine], 0.042 µM; for `Cn1cc(Cn2c(-c3cc4ccccc4n3CC3CC3)nc3cc(C(=O)N4CC5CCC4[C@@H]5N)cc(Cl)c32)cn1` (stereo partly drawn) [Example 484, (7R)-2-{7-chloro-2-[1-(cyclopropylmethyl)-1H-indol-2-yl]-1-[(1-methyl-1H-pyrazol-4-yl)methyl]-1H-1,3-benzodiazole-5-carbonyl}-2-azabicyclo[2.2.1]heptan-7-amine], 0.03 µM.
